Test results: patent US9497965B2, “Pesticidal compounds” (Syngenta Participations AG, priority 2011, dated 2016)

melting point | SMILES
142 to 144 °C | O=C(NCC1(c2c(Cl)cc(Cl)cc2Cl)CC1)c1ncccc1C(F)(F)F [A.29, N-[[1-(2,4,6-trichlorophenyl)cyclopropyl]methyl]-3-(trifluoromethyl)pyridine-2-carboxamide]
100 to 102 °C | N#Cc1cc(F)c(C2(CNC(=O)c3ccccc3C(F)(F)F)CC2)c(F)c1 [A.57, N-[[1-(4-cyano-2,6-difluoro-phenyl)cyclopropyl]methyl]-2-(trifluoromethyl)benzamide]
